The values below come from the supplement of paper PMC12592484.

Common to all, as to assay: drug sensitivity score (DSS2, normalised partial AUC of dose-response, 72 h CellTiter-Glo viability) (DSS (dimensionless)); higher = more sensitive (stronger growth inhibition / cytotoxicity); extreme values may be limits of the assay
(In general: Cellular ATP, detected with luciferase, serves as a proxy for viable cell number.)

One experiment relates to CAF#7 (primary prostate cancer-associated fibroblasts of myCAF-like type). The method in brief:
(§1)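 Low-passage primary prostate cancer-associated fibroblasts, PF179T, WPMY-1, LNCaP and 22Rv1 cells were seeded into 384-well plates carrying pre-dispensed compounds at five doses covering a 10,000-fold range. After 72 h, viability was read by CellTiter-Glo 2.0 luminescence. Responses were scaled to vehicle and positive-control wells. The drug sensitivity score (DSS2) is a partial area under the fitted logistic dose–response curve divided by the log of its upper asymptote, computed in BREEZE; higher means more sensitive.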

The test system of the next experiment is CAF#3 (primary prostate cancer-associated fibroblasts of myCAF-like type). The method in brief:
as §1

For another experiment, the system named is CAF#5 (primary prostate cancer-associated fibroblasts of myCAF-like type). The method in brief: as §1
The next experiment has as its system CAF#6 (primary prostate cancer-associated fibroblasts of iCAF-like type). The method in brief:
as §1

In the next experiment the test system is WPMY-1. The method in brief:
as §1

The next experiment relates to CAF#1 (primary prostate cancer-associated fibroblasts of myCAF-like type). The method in brief:
as §1

The next experiment concerns CAF#2 (primary prostate cancer-associated fibroblasts of iCAF-like type). The method in brief: as §1
A further experiment deals with PF179T. The method in brief: as §1
The subject of another experiment is LNCAP. The method in brief:
as §1

In the next experiment the test system is CAF#4 (primary prostate cancer-associated fibroblasts of iCAF-like type). The method in brief: as §1
The subject of a further experiment is 22Rv1. The method in brief:
as §1

For the compound `Nc1ccccc1NC(=O)c1ccc(CNC(=O)OCc2cccnc2)cc1` [Entinostat] (tested concentration range 1-10000 nM), the drug sensitivity score in the experiment on CAF#7 turned out to be 3.5; in the experiment with CAF#3, 2.4; with CAF#5, 7.4; with CAF#6, 2.2; in the experiment on WPMY-1, 8.5; with CAF#1, 5. Besides, the drug sensitivity score in the experiment on CAF#2 turned out to be 8.5; with PF179T, 8.1; in the experiment on LNCAP it was 11.6; in the experiment on CAF#4 it was 4.8; in the experiment on 22Rv1, 10.2.
Consider `CN1CCN(c2ccc(C(=O)Nc3n[nH]c4ccc(Cc5cc(F)cc(F)c5)cc34)c(NC3CCOCC3)c2)CC1` [Entrectinib] (tested concentration range 0.1-1000 nM), for which the drug sensitivity score in the experiment on CAF#7 worked out at 2.1; in the experiment on CAF#3, 2.1; in the experiment with CAF#5, 0.8; in the experiment with CAF#6 it was 0.7; in the experiment on WPMY-1 it was 0.9; with CAF#1, 1.3. Besides, the drug sensitivity score stood at 1.9 with CAF#2; 1 with PF179T; 1 with LNCAP; 0 in the experiment on CAF#4; 1.1 with 22Rv1.
With `CNC(=O)c1ccc(N2C(=S)N(c3ccc(C#N)c(C(F)(F)F)c3)C(=O)C2(C)C)cc1F` [Enzalutamide] (tested concentration range 1-10000 nM), the drug sensitivity score in the experiment on CAF#7 came to 0; with CAF#3, 0; in the experiment with CAF#5, 2.8; in the experiment on CAF#6, 0.5; with WPMY-1, 0; in the experiment on CAF#1, 3.9. The drug sensitivity score with CAF#2 was determined as 2.3; in the experiment on PF179T it was 0.4; with LNCAP, 2.6; in the experiment on CAF#4 it was 2.2; in the experiment with 22Rv1, 0.
With `Cn1cc(C2=C(c3cn(C4CCN(Cc5ccccn5)CC4)c4ccccc34)C(=O)NC2=O)c2ccccc21` [Enzastaurin] (tested concentration range 1-10000 nM), the drug sensitivity score is 0 with CAF#7; 0 with CAF#3; 0 in the experiment on CAF#5; 1.1 in the experiment on CAF#6; 5.2 in the experiment with WPMY-1; 0 in the experiment with CAF#1. Also, the drug sensitivity score was determined as 2.1 in the experiment on CAF#2; 2.3 in the experiment on PF179T; 4.7 in the experiment on LNCAP; 1.1 in the experiment on CAF#4; 4.2 with 22Rv1.
For `NS(=O)(=O)NCCNc1nonc1/C(=N/O)Nc1ccc(F)c(Br)c1` [Epacadostat] (tested concentration range 1-10000 nM), the drug sensitivity score was 1.1 with CAF#7; 0 in the experiment on CAF#3; 0.9 with CAF#5; 0 with CAF#6; 0.2 with WPMY-1; 0 with CAF#1. In addition, the drug sensitivity score in the experiment on CAF#2 was 1.1; in the experiment on PF179T it was 0.5; with LNCAP it was 0; in the experiment with CAF#4 it was 2; with 22Rv1, 0.
On to `COc1cccc2c1C(=O)c1c(O)c3c(c(O)c1C2=O)C[C@@](O)(C(=O)CO)C[C@@H]3O[C@H]1C[C@H](N)[C@@H](O)[C@H](C)O1` [Epirubicin] (tested concentration range 0.1-1000 nM), for which the drug sensitivity score in the experiment with CAF#7 turned out to be 7.9; in the experiment on CAF#3 it was 3.7; in the experiment with CAF#5, 4.4; in the experiment with CAF#6, 7; with WPMY-1, 9.5; in the experiment on CAF#1 it was 4.8. For the same compound, the drug sensitivity score in the experiment with CAF#2 is 6.2; in the experiment on PF179T it was 6.7; with LNCAP, 15.7; with CAF#4, 2.8; with 22Rv1, 10.1.
On to `COCC1(CO)C(=O)C2CCN1CC2` (configuration not stated) [Eprenetapopt] (tested concentration range 1-10000 nM), for which the drug sensitivity score in the experiment with CAF#7 was 0.2; with CAF#3 it was 0; with CAF#5 it was 0.4; in the experiment on CAF#6, 0; in the experiment on WPMY-1, 0; in the experiment with CAF#1, 0.1. Further, the drug sensitivity score with CAF#2, with PF179T, in the experiment on LNCAP, with CAF#4 and in the experiment on 22Rv1 was 0 each time.
As for `COc1cc(OC)cc(N(CCNC(C)C)c2ccc3ncc(-c4cnn(C)c4)nc3c2)c1` [Erdafitinib] (tested concentration range 0.1-1000 nM), the drug sensitivity score with CAF#7 worked out at 15; in the experiment with CAF#3, 6.2; with CAF#5 it was 2.7; with CAF#6 it was 8; in the experiment on WPMY-1, 0; in the experiment on CAF#1, 5.9. In addition, the drug sensitivity score in the experiment with CAF#2 stood at 4.8; with PF179T, 7.2; with LNCAP, 0; in the experiment with CAF#4, 8.8; in the experiment on 22Rv1, 0.
`C=C1C[C@@H]2CC[C@@]34C[C@H]5O[C@H]6[C@@H](O3)[C@H]3O[C@H](CC[C@@H]3O[C@H]6[C@H]5O4)CC(=O)C[C@@H]3[C@@H](OC)[C@@H](C[C@H](O)CN)O[C@H]3C[C@H]3O[C@@H](CC[C@@H]1O2)C[C@@H](C)C3=C` [Eribulin] (tested concentration range 0.1-1000 nM): the drug sensitivity score with CAF#7 was 22.1; with CAF#3 it was 11.8; with CAF#5, 13.7; with CAF#6 it was 15.3; in the experiment on WPMY-1, 28.9; in the experiment on CAF#1 it was 12.3. The drug sensitivity score with CAF#2 came out at 18.3; with PF179T, 19.4; in the experiment with LNCAP, 36.5; in the experiment with CAF#4, 9.6; in the experiment on 22Rv1, 24.
`C#Cc1cccc(Nc2ncnc3cc(OCCOC)c(OCCOC)cc23)c1` [Erlotinib] (tested concentration range 1-10000 nM): the drug sensitivity score in the experiment on CAF#7 is 1.1; in the experiment with CAF#3, 1.2; in the experiment with CAF#5, 4.8; with CAF#6 it was 0.2; in the experiment with WPMY-1, 0.5; in the experiment with CAF#1 it was 3.7. Moreover, the drug sensitivity score with CAF#2 amounted to 3.7; in the experiment on PF179T it was 1.4; in the experiment with LNCAP it was 4; in the experiment with CAF#4, 4.8; in the experiment with 22Rv1 it was 1.4.
As for `COc1cc([C@@H]2c3cc4c(cc3[C@@H](O[C@@H]3O[C@@H]5CO[C@@H](C)O[C@H]5[C@H](O)[C@H]3O)[C@H]3COC(=O)[C@H]23)OCO4)cc(OC)c1O` [Etoposide] (tested concentration range 1-10000 nM), the drug sensitivity score with CAF#7 is 5.1; with CAF#3, 2.6; with CAF#5, 3; with CAF#6, 2.8; with WPMY-1, 9; with CAF#1 it was 2.3. The drug sensitivity score with CAF#2 turned out to be 5.9; with PF179T it was 5.8; in the experiment on LNCAP it was 9.9; in the experiment on CAF#4, 0.9; in the experiment with 22Rv1, 10.1.
`CO[C@H]1C[C@@H]2CC[C@@H](C)[C@@](O)(O2)C(=O)C(=O)N2CCCC[C@H]2C(=O)O[C@H]([C@H](C)C[C@@H]2CC[C@@H](OCCO)[C@H](OC)C2)CC(=O)[C@H](C)/C=C(\C)[C@@H](O)[C@@H](OC)C(=O)[C@H](C)C[C@H](C)/C=C/C=C/C=C/1C` [Everolimus] (tested concentration range 0-100 nM): the drug sensitivity score with CAF#7 was 10.8; in the experiment with CAF#3, 7.2; in the experiment on CAF#5, 9.7; in the experiment on CAF#6, 8.2; in the experiment with WPMY-1, 5.4; in the experiment with CAF#1, 11.5. The drug sensitivity score stood at 8.2 in the experiment on CAF#2; 6.3 with PF179T; 14.1 with LNCAP; 6.1 in the experiment on CAF#4; 11.6 in the experiment with 22Rv1.
